# Laboratory results published in patent US20100204203A1, “Chemical Compounds 637: Pyridopyrimidinediones as PDE4 Inhibitors” (priority 2007, published 2010).
# Target: recombinant Human Phosphodiesterase B2 (PDE4B2) (Homo sapiens, UniProt Q07343)
# Assay: Human Phosphodiesterase B2 Radiometric Assay (yttrium silicate SPA beads, [3H]cyclic AMP)
# Format: biochemical
# Conditions: recombinant human PDE4B2, radiometric SPA assay, 8 nM [3H]cyclic AMP
# Protocol: Human Phosphodiesterase B2 Radiometric Assay
# The assay uses recombinant Human Phosphodiesterase B2 (PDE4B2) produced in house (PrAZL0163), stored at −20° C. This assay is based on the observation that 5′AMP, the product of the reaction catalysed by PDE4, binds preferentially to yttrium silicate SPA beads (Amersham Biosciences, UK) compared to the substrate, cAMP. Compounds at the appropriate concentration were preincubated at 30 C for 30 min with an assay buffer containing 50 mM HEPES (pH 7.5), 8.3 mM MgCl2, 1.7 mM EGTA, 0.01% (w/v) Brij° 35 and 0.1 mg/mL recombinant PDE4B2. The reaction was started by the addition of [3H]cyclic AMP to give a final concentration of 8 nM, and was stopped 20 minutes after the addition of the substrate by the addition of yttrium silicate SPA beads containing 18 mM Zn SO4. Bound [3H]cyclic AMP was measured using a Topcount NXT (Packard Bioscience, UK). pIC50 values (presented in Table 15) were determined using Xlfit3 curve fitting, using model 205.
# Chain of recombinant Human Phosphodiesterase B2 (PDE4B2) (Q07343 1-564 isoform Q07343-2): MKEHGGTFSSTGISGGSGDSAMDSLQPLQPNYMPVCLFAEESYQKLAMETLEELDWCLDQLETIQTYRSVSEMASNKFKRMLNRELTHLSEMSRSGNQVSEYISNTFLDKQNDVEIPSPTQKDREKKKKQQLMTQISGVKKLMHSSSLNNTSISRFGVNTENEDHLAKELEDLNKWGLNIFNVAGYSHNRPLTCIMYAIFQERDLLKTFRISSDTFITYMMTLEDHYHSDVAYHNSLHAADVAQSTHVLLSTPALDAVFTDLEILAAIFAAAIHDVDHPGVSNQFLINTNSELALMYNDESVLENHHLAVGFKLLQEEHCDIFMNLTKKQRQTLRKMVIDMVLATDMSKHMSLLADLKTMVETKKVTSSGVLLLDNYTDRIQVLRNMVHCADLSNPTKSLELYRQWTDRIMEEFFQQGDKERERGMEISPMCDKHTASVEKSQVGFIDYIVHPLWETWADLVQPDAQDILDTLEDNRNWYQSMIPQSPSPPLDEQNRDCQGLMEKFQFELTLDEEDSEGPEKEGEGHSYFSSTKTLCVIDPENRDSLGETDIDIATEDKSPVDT
row,PDE4B2 pIC50,Compound
1,9.8,"CN(C)C1(C(=O)NC2CCC(n3c(=O)c4cc(F)cnc4n(-c4cccc(-c5ccc(CN6CCC(CO)CC6)cc5)c4)c3=O)CC2)CC1 (stereo not shown) [Example 128, 1-(dimethylamino)-N-{4-[6-fluoro-1-(4′-{[4-(hydroxymethyl)piperidin-1-yl]methyl}biphenyl-3-yl)-2,4-dioxo-1,4-dihydropyrido[2,3-d]pyrimidin-3(2H)-yl]cyclohexyl}cyclopropane-carboxamide]"

# Same assay, conditions: recombinant human PDE4B2, radiometric SPA assay, 8 nM [3H]cyclic AMP; read-out: PDE4B2 pIC50 (converted)
row,Compound,IC50
1,"O=C(N[C@H]1CC[C@@H](n2c(=O)c3cc(F)cnc3n(-c3ccc(Cc4ccccc4)cc3)c2=O)CC1)c1cn2cc(F)ccc2n1 [Example 37, N-{cis-4-[1-(4-benzylphenyl)-6-fluoro-2,4-dioxo-1,4-dihydropyrido[2,3-d]pyrimidin-3(2H)-yl]cyclohexyl}-6-fluoroimidazo[1,2-a]pyridine-2-carboxamide]",6.31 nM
2,"N[C@H]1CC[C@@H](n2c(=O)c3cc(F)cnc3n(-c3cccc(C(=O)O)c3)c2=O)CC1 [Example 91, 3-[3-(cis-4-aminocyclohexyl)-6-fluoro-2,4-dioxo-3,4-dihydropyrido[2,3-d]pyrimidin-1(2H)-yl]benzoic acid]",7.94 nM
3,"Cc1cc(C(=O)N[C@H]2CC[C@@H](n3c(=O)c4cc(F)cnc4n(-c4cccc(-c5ccc(CN6CCN(C(C)C)CC6)cc5)c4)c3=O)CC2)nn1C [Example 114, N-{cis-4-[6-fluoro-1-{4′-[(4-isopropylpiperazin-1-yl)methyl]biphenyl-3-yl}-2,4-dioxo-1,4-dihydropyrido[2,3-d]pyrimidin-3(2H)-yl]cyclohexyl}-1,5-dimethyl-1H-pyrazole-3-carboxamide]",0.00794 nM
4,"CN1CCCN(Cc2ccc(-c3cccc(-n4c(=O)n([C@H]5CC[C@@H](NC(=O)c6cc7ccccc7cn6)CC5)c(=O)c5cc(F)cnc54)c3)cc2)CC1 [Example 359, N-{cis-4-[6-fluoro-1-{4′-[(4-methyl-1,4-diazepan-1-yl)methyl]biphenyl-3-yl}-2,4-dioxo-1,4-dihydropyrido[2,3-d]pyrimidin-3(2H)-yl]cyclohexyl} isoquinoline-3-carboxamide]",0.0251 nM
5,"CN(C)CCN(C)Cc1ccc(-c2cccc(-n3c(=O)n([C@H]4CC[C@@H](NC(=O)c5cn6c(n5)CCCC6)CC4)c(=O)c4cc(F)cnc43)c2)cc1 [Example 133, N-{cis-4-[1-(4′-{[[2-(dimethylamino)ethyl](methyl)amino]methyl}biphenyl-3-yl)-6-fluoro-2,4-dioxo-1,4-dihydropyrido[2,3-d]pyrimidin-3(2H)-yl]cyclohexyl}-5,6,7,8-tetrahydroimidazo[1,2-a]pyridine-2-carboxamide]",0.01 nM
6,"CC(C)(C)OC(=O)NCc1cccc(-c2cccc(-n3c(=O)n([C@H]4CC[C@@H](NC(=O)c5cn6cc(F)ccc6n5)CC4)c(=O)c4cc(F)cnc43)c2)c1 [Example 18, tert-butyl ({3′-[6-fluoro-3-(cis-4-{[(6-fluoroimidazo[1,2-a]pyridin-2-yl)carbonyl]amino}cyclohexyl)-2,4-dioxo-3,4-dihydropyrido[2,3-d]pyrimidin-1(2H)-yl]biphenyl-3-yl}methyl)carbamate.]",0.0631 nM
7,"CC(=O)N1CCN(Cc2ccc(-c3cccc(-n4c(=O)n([C@H]5CC[C@@H](NC(=O)c6cc(C)n(C)n6)CC5)c(=O)c5cc(F)cnc54)c3)cc2)CC1 [Example 213, N-{cis-4-[1-{4′-[(4-acetylpiperazin-1-yl)methyl]biphenyl-3-yl}-6-fluoro-2,4-dioxo-1,4-dihydropyrido[2,3-d]pyrimidin-3(2H)-yl]cyclohexyl}-1,5-dimethyl-1H-pyrazole-3-carboxamide]",0.0158 nM
8,"CN1CCCN(Cc2ccc(-c3cccc(-n4c(=O)n([C@H]5CC[C@@H](NC(=O)c6cnc7ccccc7n6)CC5)c(=O)c5cc(F)cnc54)c3)cc2)CC1 [Example 358, N-{cis-4-[6-fluoro-1-{4′-[(4-methyl-1,4-diazepan-1-yl)methyl]biphenyl-3-yl}-2,4-dioxo-1,4-dihydropyrido[2,3-d]pyrimidin-3(2H)-yl]cyclohexyl} quinoxaline-2-carboxamide]",0.0126 nM
9,"O=C(N[C@H]1CC[C@@H](n2c(=O)c3cc(F)cnc3n(-c3cccc(-c4ccc(CN5CCN(CCO)CC5)cc4)c3)c2=O)CC1)c1cn2c(n1)CCCC2 [Example 120, N-{cis-4-[6-fluoro-1-(4′-{[4-(2-hydroxyethyl)piperazin-1-yl]methyl}biphenyl-3-yl)-2,4-dioxo-1,4-dihydropyrido[2,3-d]pyrimidin-3(2H)-yl]cyclohexyl}-5,6,7,8-tetrahydroimidazo[1,2-a]pyridine-2-carboxamide]",0.0316 nM

# Second part, the molecule after the results:
row,IC50,Compound
1,0.126 nM,"O=c1c2cc(F)cnc2n(-c2cccc(-c3cccc(O)c3CN3CCOCC3)c2)c(=O)n1[C@H]1CC[C@@H](NCc2cn3cc(F)ccc3n2)CC1 [Example 346, 6-Fluoro-3-(cis-4-{[(6-fluoroimidazo[1,2-a]pyridin-2-yl)methyl]amino}cyclohexyl)-1-[3′-hydroxy-2′-(morpholin-4-ylmethyl)biphenyl-3-yl]pyrido[2,3-d]pyrimidine-2,4(1H,3H)-dione]"
2,0.0126 nM,"O=C(N[C@H]1CC[C@@H](n2c(=O)c3cc(F)cnc3n(-c3cccc(-c4ccc(CN5CCOCC5)cc4)c3)c2=O)CC1)c1cn2cc(F)ccc2n1 [Example 28, 6-fluoro-N-{cis-4-[6-fluoro-1-[4′-(morpholin-4-ylmethyl)biphenyl-3-yl]-2,4-dioxo-1,4-dihydropyrido[2,3-d]pyrimidin-3(2H)-yl]cyclohexyl}imidazo[1,2-a]pyridine-2-carboxamide.]"
3,0.0316 nM,"Cc1cc(-c2ccc(CN3CCNCC3)cc2)cc(-n2c(=O)n([C@H]3CC[C@@H](NC(=O)c4cn5cc(F)ccc5n4)CC3)c(=O)c3cc(F)cnc32)c1 [Example 230, 6-Fluoro-N-{cis-4-[6-fluoro-1-[5-methyl-4′-(piperazin-1-ylmethyl)biphenyl-3-yl]-2,4-dioxo-1,4-dihydropyrido[2,3-d]pyrimidin-3 (2H)-yl]cyclohexyl}imidazo[1,2-a]pyridine-2-carboxamide]"
4,0.316 nM,"O=C(N[C@H]1CC[C@@H](n2c(=O)c3cc(F)cnc3n(-c3cccc(-c4ccc(F)cc4OCCN4CCNCC4)c3)c2=O)CC1)c1cn2cc(F)ccc2n1 [Example 85, 6-fluoro-N-{cis-4-[6-fluoro-1-[4′-fluoro-2′-(2-piperazin-1-ylethoxy)biphenyl-3-yl]-2,4-dioxo-1,4-dihydropyrido[2,3-d]pyrimidin-3(2H)-yl]cyclohexyl}imidazo[1,2-a]pyridine-2-carboxamide]"
5,0.2 nM,"CN(C)CCCOc1cc(F)ccc1-c1cccc(-n2c(=O)n([C@H]3CC[C@@H](NC(=O)c4cn5cc(F)ccc5n4)CC3)c(=O)c3cc(F)cnc32)c1 [Example 84, N-{cis-4-[1-{2′-[3-(dimethylamino)propoxy]-4′-fluorobiphenyl-3-yl}-6-fluoro-2,4-dioxo-1,4-dihydropyrido[2,3-d]pyrimidin-3(2H)-yl]cyclohexyl}-6-fluoroimidazo[1,2-a]pyridine-2-carboxamide]"
6,0.02 nM,"CN1CCN(Cc2ccc(-c3cccc(-n4c(=O)n([C@H]5CC[C@@H](NC(=O)c6cn7cc(F)ccc7n6)CC5)c(=O)c5cc(F)cnc54)c3)cc2)CC1 [Example 269, 6-Fluoro-N-{cis-4-[6-fluoro-1-{4′-[(4-methylpiperazin-1-yl)methyl]biphenyl-3-yl}-2,4-dioxo-1,4-dihydropyrido[2,3-d]pyrimidin-3(2H)-yl]cyclohexyl}imidazo[1,2-a]pyridine-2-carboxamide]"
